Laboratory results taken from patent US12600732B2, “Bifunctional compounds for degrading BTK via ubiquitin proteosome pathway” (NURIX THERAPEUTICS, INC., priority 2019, dated 2026).
Where two headings read alike, the source gives them in different places.

Experiments:
primary human T cells [1] = assay: T cell activation assay, CD25 and CD69 staining (flow cytometry); type: cell-based; conditions: for CD25 Staining Anti-CD3/Anti-CD28 Stimulation / CD69 Staining Anti-CD3/Anti-CD28 Stimulation: fold-change of response relative to baseline
Description: (§1) This example evaluates whether CTMs with IMiD activity affect T cell activation. […] These assays were performed to assess whether BTK CTMs with and without IMiD activity affected activation of primary human T cells after stimulation of the T cell receptor with anti-CD3/ati-CD28 stimulation. T cell activation was measured by IL-2 secretion (ELISA assay) and upregulation of activation markers CD25 and CD69 on the surface of T cells (flow cytometry). Data are presented as the fold-change of response relative to baseline (stimulation with anti-CD3/anti-CD28 stimulation in the absence of compound).

Ikaros = target: T1, Ikaros (Homo sapiens, UniProt Q13422+Q96SW2); assay: Ikaros degradation in Mantle Cell Lymphoma lines (flow cytometry); type: cell-based; conditions: treatment time 24 h
T1 construct: endogenous in cells; host or cells: Mino, Rec-1
Text: (§2) Ikaros and Aiolos Degradation in Mantle Cell Lymphoma Lines (Ikaros and Aiolos Flow Cytometry)
(§3) This example evaluates the IMiD activity of CTMs in cellular models of Mantle Cell Lymphoma (MCL). […] These assays are to determine potency of CTMs for degrading IMiD neo-substrates in cellular models of MCL and to generate data to inform efficacy studies in MCL xenografts.

Aiolos = target: T2, Aiolos (Homo sapiens, UniProt Q96SW2+Q9UKT9); assay: Aiolos degradation in Mantle Cell Lymphoma lines (flow cytometry); type: cell-based; conditions: treatment time 24 h
T2 construct: endogenous in cells; host or cells: Mino, Rec-1
Text: as §2, §3

primary human T cells [2] = assay: T cell activation assay, IL-2 secretion (ELISA); type: cell-based
Description: as §1

BTK C481S = BTK C481S (Homo sapiens, UniProt Q06187, C481S); assay: BTK degradation (Total BTK HTRF) in TMD8 cells expressing BTK-C481S; type: cell-based; design: endogenous in cells; host or cells: TMD8 BTK-C481S (clone2C3), Cas9 RNP knock-in; conditions: TMD8 BTK-C481S (clone2C3) cells, treatment time 4 h
Description: BTK levels were determined using Cisbio Total-BTK HTRF (Homologous Time-Resolved Fluorescence) kit (63ADK064PEG) according to the manufacturer's protocol. Briefly, cells were incubated in 1× supplied lysis buffer for 30 minutes. In an opaque white low volume 96-well plate (Cisbio, 66PL96005), cell lysate was combined with two different specific BTK antibodies, one conjugated with Eu^3+-Cryptate FRET donor and one conjugated with d2 FRET acceptor. Assay controls include wells containing cell lysate with only the Eu^3+-Cryptate FRET donor antibody and wells containing both HTRF antibodies and lysis buffer without cells or control lysate provided by Cisbio. HTRF ratio was calculated as (acceptor signal at 665 nm/donor signal at 620 nm)×10^4. Background HTRF levels were determined from the control well containing the donor, but no acceptor, antibody. Background HTRF levels were subtracted from all samples. Readouts were reported as HTRF levels relative to HTRF levels of DMSO-treated cells. Four-parameter non-linear regressions were performed in GraphPad Prism 7.02 to obtain DC50 values.
BTK Degradation (Total BTK HTRF) at Four Hours in TMD8 Cells Expressing BTK-C481S
This example evaluates the potency of CTM in degrading […]. The BTK binding moieties utilized in CTMs bind to the BTK active site. This example evaluates whether the active site mutation C481S affects CTM-induced degradation of BTK.

BTK = target: T3, BTK (Mus musculus, UniProt P35991); assay: In vivo degradation of BTK in mouse PD experiments with oral dosing; conditions: oral dose 30 mg/kg, 24 h
T3 construct: from tissue; host or cells: mouse blood B cells / splenocytes (CD-1 or BALB/c)
Outline: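 BTK in blood or splenocytes read by flow cytometry (or HTRF), degradation taken as B-cell minus T-cell BTK MFI versus vehicle. Mice (CD-1 or BALB/c) received compound orally, initially 90 mg/kg for 6 h, then lower doses and longer time points.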

TMD8 C481S cells = assay: Cell viability assay (CellTiter-Glo), TMD8 C481S cells; conditions: for EC50: Homo sapiens, TMD8, 72 h; for EMAX (% viable cells): TMD8 C481S cells, treatment time 72 h
TMD8 cells = assay: Cell viability assay (CellTiter-Glo), TMD8 cells; conditions: for EC50: Homo sapiens, TMD8, 72 h; for EMAX (% viable cells): TMD8 cells, treatment time 72 h
Description: Cell viability was determined using CellTiter-Glo 2.0 Luminescent Cell Viability Assay (Promega, G9242), which quantitates the amount of ATP present as a proxy for the number of viable cells in culture. Cells were plated with densities between 2000-4000 cells per well in 96-well plates. […] CellTiter-Glo reagent was added to cells at a dilution of 1:20, and the plate was incubated ten minutes at room temperature prior to reading the luminescence signal using an EnVision plate reader. Controls included cells treated with DMSO and wells that contained no cells, only media. Background luminescence signal was determined by control wells containing no cells, only media, and was then subtracted from all sample wells. Luminescence values were then normalized to DMSO-treated wells and reported at proportion viable cells.
Here, the ability of CTMs to affect viability in BTK-dependent cell lines was assessed.

[3] = PK data for BTK CTMs (in vivo plasma concentrations); conditions: Mouse Balb/c
Text: The present example evaluates in vivo plasma concentrations of BTK CTMs to develop PK-PD-efficacy relationship and predict human exposure.

[4] = system: B cell receptor (BCR) signaling; assay: B cell activation assay (flow cytometry), mouse B cells; type: cell-based; conditions: treatment 4 h, IgM stimulation 18 h
Description: Compound was present throughout the stimulation. Cells were stained with Live/Dead dye (Fisher L34976) and then fluorophore-conjugated antibodies against CD20 (Biolegend 302330), CD3 (BD Pharmingen 557705), CD86 (Biolegend 305416) and CD69 (Biolegend 310906). Stained cells were fixed in PFA and run on an Attune N×T Acoustic Focusing Flow Cytometer (Thermo-Fisher A29004), and data was analyzed using FlowJo (v10.5.3) and GraphPad Prism (v7.00) software. Single live lymphocytes were gated for B cells (CD20+CD3−) and T cells (CD3+CD20−), and the geometric mean fluorescence intensity (MFI) of CD86 and CD69 was calculated for each population. The MFI of the unstimulated sample was used to quantify baseline activation.
This example evaluates whether CTM treatment affects B cell receptor (BCR) signaling. BTK is activated downstream of the B cell receptor and leads to upregulation of activation markers CD86 and CD69 on the surface of B cells.

Row | SMILES | DC50 (BTK C481S) | % BTK Remaining (BTK; splenocytes, HTRF) | % BTK Remaining (BTK; blood, flow cytometry) | EC50 (TMD8 C481S cells) | EMAX (% viable cells) (TMD8 C481S cells) | EC50 (TMD8 cells) | EMAX (% viable cells) (TMD8 cells) | other results
1 | CN1CCN([C@@H]2CCCN(c3cnc(C(N)=O)c(Nc4ccc5c(c4)CCN(C4CN(c6ccc7c(c6)C(=O)N(C6CCC(=O)NC6=O)C7=O)C4)C5)n3)C2)C1=O (stereo partly shown) [Compound 30] |  |  |  |  |  |  |  | CD25 Staining Anti-CD3/Anti-CD28 Stimulation (primary human T cells [1]; 1.4 nM): 1.01; CD69 Staining Anti-CD3/Anti-CD28 Stimulation (primary human T cells [1]; 1.4 nM): 1.01; CD25 Staining Anti-CD3/Anti-CD28 Stimulation (primary human T cells [1]; 37 nM): 1.14; CD69 Staining Anti-CD3/Anti-CD28 Stimulation (primary human T cells [1]; 37 nM): 1.10; CD25 Staining Anti-CD3/Anti-CD28 Stimulation (primary human T cells [1]; 333 nM): 1.17; CD69 Staining Anti-CD3/Anti-CD28 Stimulation (primary human T cells [1]; 333 nM): 1.16; expression of CD25 and CD69 compared to baseline (anti-CD3/anti-CD28 stimulation alone) (primary human T cells [1]; primary human T cells): unchanged or decreased levels; DC50 (Ikaros; Mino cells): 1100 nM; DC50 (Ikaros; Rec-1 cells): 1000 nM; DC50 (Aiolos; Mino cells): 10 nM; DC50 (Aiolos; Rec-1 cells): 34 nM; IL-2 Secretion Anti-CD3/Anti-CD28 Stimulation (primary human T cells [2]; 1.4 nM, fold-change of response relative to baseline): 1.59; IL-2 Secretion Anti-CD3/Anti-CD28 Stimulation (primary human T cells [2]; 37 nM, fold-change of response relative to baseline): 3.82; IL-2 Secretion Anti-CD3/Anti-CD28 Stimulation (primary human T cells [2]; 333 nM, fold-change of response relative to baseline (stimulation without compound)): 3.95; IL-2 secretion compared to baseline (anti-CD3/anti-CD28 stimulation alone) (primary human T cells [2]; primary human T cells): increased IL-2 secretion but not to the level observed with IMiDs
2 | CN1CCN([C@@H]2CCCN(c3cnc(C(N)=O)c(Nc4ccc(C5CCN(CC6CCN(c7ccc(NC8CCC(=O)NC8=O)nc7)CC6)CC5)cc4)n3)C2)C1=O (stereo partly shown) [Compound 166] | 8.1 nM | 19% |  |  |  |  |  | 
3 | NC(=O)c1ncc(N2CCCCC2)nc1Nc1ccc(C2CCN(CC3CCN(c4ccc5c(=O)n(C6CCC(=O)NC6=O)ccc5c4)CC3)CC2)cc1 (stereo not shown) [Compound 133] | 8.3 nM |  | 10% | 6.83 nM | 9% | 6.98 nM | 15% | 
4 | CN1CCN([C@H]2CCCN(c3cnc(C(N)=O)c(Nc4ccc(C5CCN(CC6CCN(c7ccc(NC8CCC(=O)NC8=O)cn7)CC6)CC5)cc4)n3)C2)C1=O (stereo partly shown) [Compound 129] | 5.3 nM |  | 16% | 4.36 nM | 14% | 3.17 nM | 16% | 
5 | NC(=O)c1ncc(N2CCC[C@H](N3CCOC3=O)C2)nc1Nc1ccc(N2CCC(C3CN(c4ccc5c(c4)C(=O)N(C4CCC(=O)NC4=O)C5=O)C3)CC2)cc1 (stereo partly shown) [Compound 70] | 3.1 nM | 42% |  |  |  |  |  | 
6 | NC(=O)c1ncc(N2CCCC3(COC3)C2)nc1Nc1ccc(C2CCN(C[C@H]3CCN(c4ccc5c(c4)C(=O)N(C4CCC(=O)NC4=O)C5=O)C3)CC2)cc1 (stereo partly shown) [Compound 126] | 7.7 nM |  | 33% |  |  |  |  | 
7 | NC(=O)c1ncc(N2CCC[C@@H](N3CCOC3=O)C2)nc1Nc1ccc(C2CCN(C[C@H]3CCN(c4ccc5c(c4)C(=O)N(C4CCC(=O)NC4=O)C5=O)C3)CC2)cc1 (stereo partly shown) [Compound 73] | 1.2 nM | 26% |  | 0.054 nM | 19% | 0.004 nM | 25% | AUC ([3]; 1 mg/kg IV): 0.6 µM·h; clearance ([3]; 1 mg/kg IV): 33.8 mL/min/kg; Vd ([3]; 1 mg/kg IV, read-out: Volume of Distribution): 3.4 L/kg; AUC ([3]; 10 mg/kg PO): 2.9 µM·h; bioavailability ([3]; 10 mg/kg PO): 47%; EC50 ([4]; read-out: CD69 EC50): ~0.2 nM; EC50 ([4]; read-out: CD86 EC50): 0.2 nM
